The results in this text go back to ChEMBL document CHEMBL1201862, “PubChem BioAssay data set” (2004).

Test systems include HOP-92; HOP-62; NCI-H460; HCT-15; UACC-62; NCI-H226; EKVX; K562; OVCAR-4; NCI-H522; 786-0; UO-31; M14; SF-268; HCT-116; SNB-75; RXF 393.
Assay in all cases: NCI tumour cell line growth inhibition, 48 h

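Cultured in 96-well plates, cells were exposed to test compound for 48 hours across five concentrations. At the GI50, growth is halved.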 Activity calls are given as the source filed them. Cut-off read from the data, not from the text of the source: active = GI50 up to about 1.1 µM and inactive = higher.

As to `CC(=O)NNc1nc(C)c(C(=O)NNC(=O)C(=O)Nc2c(Cl)cc([N+](=O)[O-])cc2Cl)s1`, the GI50 in the test with HOP-92 is 19.5 µM (inactive); with HOP-62, 56.6 µM (inactive); in the test on NCI-H460, 43.2 µM (inactive); in the test on HCT-15, 40.4 µM; in the test on UACC-62, 29.9 µM (inactive); with NCI-H226, 24 µM (inactive). The GI50 was 44.2 µM (inactive) in the test with EKVX; 36 µM (inactive) with K562; 22.1 µM (inactive) in the test with OVCAR-4; > 10 µM (inactive) in the test with NCI-H522; 33 µM (inactive) with 786-0; 27.4 µM (inactive) in the test with UO-31. Besides, the GI50 was 52.1 µM (inactive) with M14, 29.7 µM (inactive) in the test on SF-268 and 34.5 µM (inactive) with HCT-116.
As to `C=C1C(OC(=O)/C=C/c2ccccc2)CC(OC(C)=O)C2(C)C1CC1CC(OC(C)=O)C(C)=C(C(OC(C)=O)C2OC(C)=O)C1(C)C` (configuration not stated), the GI50 with HOP-92 was > 100 µM (inactive); in the test on HOP-62, > 100 µM (inactive); in the test with NCI-H460 it was 6.67 µM (inactive); with HCT-15 it was 5.41 µM; in the test on UACC-62, > 100 µM (inactive); in the test with NCI-H226, > 100 µM (inactive). For the same molecule, the GI50 in the test with K562 is 5.25 µM (inactive); in the test on NCI-H522 it was > 100 µM (inactive); with 786-0 it was > 100 µM (inactive); with SNB-75 it was > 100 µM (inactive); in the test on UO-31, > 100 µM (inactive); in the test with M14 it was > 100 µM (inactive). Besides, the GI50 is > 100 µM (inactive) with SF-268 and 3.79 µM (inactive) in the test with HCT-116.
Consider `O=C(CC1S/C(=N\c2ccccc2Cl)NC1=O)Nc1ccc(Cl)cc1` (configuration not stated), for which the GI50 in the test on HOP-62 is > 100 µM (inactive); in the test with NCI-H460, > 100 µM (inactive); in the test on HCT-15, 16.3 µM; in the test with UACC-62, > 100 µM (inactive); with RXF 393, > 100 µM (inactive); with EKVX, > 100 µM (inactive). The GI50 with K562 is 79.1 µM (inactive); in the test on OVCAR-4 it was 38.9 µM (inactive); in the test on 786-0 it was > 100 µM (inactive); in the test on UO-31, > 100 µM (inactive); in the test on M14, > 100 µM (inactive); in the test on SF-268, > 100 µM (inactive). Moreover, in the test on HCT-116, the GI50 is > 100 µM (inactive).
As for `CC1(OCc2ccccc2)C(=O)N2C1NCC2(C)C` (configuration not stated), the GI50 was > 100 µM (inactive) in the test with HOP-62; > 100 µM (inactive) in the test with NCI-H460; greater than 100 µM with HCT-15; > 100 µM (inactive) with UACC-62; > 100 µM (inactive) in the test on NCI-H226; > 100 µM (inactive) in the test on RXF 393. Further, the GI50 was > 100 µM (inactive) in the test with EKVX; > 100 µM (inactive) with K562; > 100 µM (inactive) in the test with OVCAR-4; > 100 µM (inactive) with 786-0; > 100 µM (inactive) in the test on SNB-75; 86.5 µM (inactive) with UO-31. Also, the GI50 with M14, in the test on SF-268 and with HCT-116 was > 100 µM (inactive) each time.
As to `Cc1cc(N(CCC#N)CCC#N)ccc1/C=C\C(=O)Nc1ccccc1`, the GI50 with HOP-92 was > 100 µM (inactive); in the test on HOP-62, 57 µM (inactive); in the test on NCI-H460, 71.3 µM (inactive); in the test on HCT-15, 0.887 µM; with UACC-62, 0.931 µM (active); with NCI-H226 it was > 100 µM (inactive). Moreover, the GI50 is > 100 µM (inactive) in the test on EKVX; 1.37 µM (inactive) in the test with K562; 62.4 µM (inactive) in the test on OVCAR-4; > 100 µM (inactive) in the test on NCI-H522; > 100 µM (inactive) in the test on 786-0; > 100 µM (inactive) with SNB-75. Also, the GI50 in the test with UO-31 was 33.5 µM (inactive); in the test with M14, 2.9 µM (inactive); with SF-268 it was 97.1 µM (inactive); in the test with HCT-116, > 100 µM (inactive).
`O=C1C[C@@H]2[C@@H](C=CC23CC3)N1O`: the GI50 in the test with HOP-62, in the test with NCI-H460, in the test with UACC-62, in the test on NCI-H226, in the test with RXF 393 and with EKVX was > 100 µM (inactive) throughout. Further, the GI50 with K562, in the test with OVCAR-4, in the test with NCI-H522, with 786-0, in the test with SNB-75 and in the test on UO-31 was > 100 µM (inactive) each time. Also, the GI50 in the test with M14, in the test on SF-268 and in the test with HCT-116 was > 100 µM (inactive) each time.
With `COC(=O)C1CC(=O)CCC1c1ccccc1` (configuration not stated), the GI50 was > 100 µM (inactive) in the test on HOP-92; > 100 µM (inactive) in the test with HOP-62; > 100 µM (inactive) in the test on NCI-H460; greater than 100 µM with HCT-15; > 100 µM (inactive) with UACC-62; > 100 µM (inactive) in the test with NCI-H226. For the same molecule, the GI50 with EKVX, in the test on K562, with OVCAR-4, with NCI-H522, in the test on 786-0 and in the test on SNB-75 was > 100 µM (inactive) in each case. The GI50 in the test with UO-31, in the test on M14, in the test with SF-268 and with HCT-116 was > 100 µM (inactive) each time.
Regarding `NCCCNCCCCN(CCCN)/[N+]([O-])=N\O`, the GI50 in the test with HOP-92 was > 100 µM (inactive); with HOP-62 it was > 100 µM (inactive); in the test with NCI-H460 it was > 100 µM (inactive); with HCT-15 it was greater than 100 µM; in the test on UACC-62, > 100 µM (inactive); in the test with NCI-H226, > 100 µM (inactive). Moreover, the GI50 is > 100 µM (inactive) in the test with RXF 393; > 100 µM (inactive) in the test on EKVX; > 100 µM (inactive) in the test with K562; > 100 µM (inactive) in the test with OVCAR-4; > 100 µM (inactive) with 786-0; 89.3 µM (inactive) in the test with SNB-75. Further, the GI50 in the test on UO-31, with M14, with SF-268 and in the test on HCT-116 was > 100 µM (inactive) each time.
In the case of `COc1nc(NC2OC(COC(C)=O)C(OC(C)=O)C(OC(C)=O)C2OC(C)=O)c(/N=C/C=N/c2c(NC3OC(COC(C)=O)C(OC(C)=O)C(OC(C)=O)C3OC(C)=O)nc(OC)[nH]c2=O)c(=O)[nH]1` (configuration not stated), the GI50 with HOP-92, with HOP-62, in the test on UACC-62, in the test on NCI-H226, in the test on EKVX and in the test with K562 was > 100 µM (inactive) throughout. In addition, the GI50 in the test with OVCAR-4, with NCI-H522, in the test on 786-0, in the test on SNB-75, with UO-31 and with M14 was > 100 µM (inactive) each time. Further, the GI50 with SF-268 and in the test with HCT-116 was > 100 µM (inactive) in each case.
As for `CC(=O)O[C@@H]1C2C(=O)OC(=O)C2C2CCC[C@]23O[C@H]13` (some centres not stated), the GI50 is > 100 µM (inactive) in the test on HOP-62; > 100 µM (inactive) in the test on NCI-H460; greater than 100 µM in the test with HCT-15; > 100 µM (inactive) in the test with UACC-62; > 100 µM (inactive) in the test on NCI-H226; > 100 µM (inactive) with RXF 393. Besides, the GI50 in the test with K562, with OVCAR-4, in the test on NCI-H522, with 786-0, with SNB-75 and in the test on UO-31 was > 100 µM (inactive) each time. The GI50 with M14, in the test with SF-268 and in the test with HCT-116 was > 100 µM (inactive) in each case.
For `Clc1cc(Cl)c2ns[s+]c2c1Cl`, the GI50 with HOP-62, in the test on NCI-H460, in the test on UACC-62, in the test on NCI-H226, in the test with RXF 393 and in the test with EKVX was > 100 µM (inactive) throughout. Further, the GI50 was > 100 µM (inactive) in the test with K562; > 100 µM (inactive) with OVCAR-4; > 100 µM (inactive) in the test with NCI-H522; > 100 µM (inactive) with 786-0; 43.4 µM (inactive) in the test with SNB-75; > 100 µM (inactive) in the test with UO-31. For the same molecule, the GI50 in the test on M14, with SF-268 and in the test on HCT-116 was > 100 µM (inactive) throughout.
With `C/C(CN1C(=O)c2ccccc2C1=O)=N\NS(=O)(=O)c1cccc(C(=O)O)c1`, the GI50 in the test on HOP-62 was > 100 µM (inactive); in the test with NCI-H460, > 100 µM (inactive); with HCT-15 it was greater than 100 µM; in the test on UACC-62, > 100 µM (inactive); in the test with NCI-H226 it was > 100 µM (inactive); in the test on EKVX, > 100 µM (inactive). Moreover, the GI50 with K562, with OVCAR-4, with NCI-H522, with 786-0, in the test on SNB-75 and in the test with UO-31 was > 100 µM (inactive) each time. The GI50 in the test with M14, with SF-268 and in the test on HCT-116 was > 100 µM (inactive) throughout.
As to `CC(C)c1cc(C(C)C)c(S(=O)(=O)NN)c(C(C)C)c1`, the GI50 in the test with HOP-92 was > 100 µM (inactive); with HOP-62, > 100 µM (inactive); with NCI-H460, > 100 µM (inactive); with HCT-15, greater than 100 µM; with UACC-62 it was > 100 µM (inactive); in the test with RXF 393 it was > 100 µM (inactive). The GI50 with EKVX, in the test with K562, with OVCAR-4, with 786-0, in the test with SNB-75 and in the test on SF-268 was > 100 µM (inactive) each time. Also, the GI50 with HCT-116 was > 100 µM (inactive).
